{"source": "patent US20240384268A1", "about": "“Oligonucleotides” (Hudson Institute of Medical Research, priority 2021, published 2024)", "key": {"STING": {"biological_target": "T1, STING (Homo sapiens, UniProt Q86WV6)", "T1 construct": "host or cells: MG-63 (human osteosarcoma)", "T1 sequence (Q86WV6 whole entry)": "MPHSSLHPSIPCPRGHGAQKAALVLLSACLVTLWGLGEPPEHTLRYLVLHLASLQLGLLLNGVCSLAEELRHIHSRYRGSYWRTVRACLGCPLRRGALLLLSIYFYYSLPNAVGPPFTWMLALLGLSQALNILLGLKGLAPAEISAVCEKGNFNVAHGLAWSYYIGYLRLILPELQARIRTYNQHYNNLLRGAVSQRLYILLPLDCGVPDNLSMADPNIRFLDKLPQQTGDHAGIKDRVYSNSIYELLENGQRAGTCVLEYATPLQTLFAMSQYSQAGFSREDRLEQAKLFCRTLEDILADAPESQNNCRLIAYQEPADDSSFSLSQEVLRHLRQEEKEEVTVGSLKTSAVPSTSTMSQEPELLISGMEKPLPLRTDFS", "assay": "STING agonist (GSK, DMXAA)-driven IP-10 in MG-63 cells and immortalised mouse BMDMs", "format": "cell-based", "conditions": "C2-Mut1 500 nM 6 h (GSK 100 nM, DMXAA 50 μg/ml); MOE/LNA ASOs 1 mM as printed (GSK, MG-63)"}, "THP-1 and HT-29 cells": {"system": "THP-1 and HT-29 cells", "assay": "Cell viability, resazurin", "conditions": "THP-1 100 nM, HT-29 187.5 nM; 6 h, with or without ISD70 overnight"}}, "note": "In the oligonucleotide strings, read from the 5' end, every base follows the letter of its sugar. An asterisk marks phosphorothioate; unmarked linkages are phosphodiester. Other units and linkages are bracketed, terminal groups are in braces. A string of capitals states the bases alone. d = 2'-deoxy (DNA); m = 2'-O-methyl"}
{"substance": "mG*mC*mG*mG*mU*A*T*C*C*A*T*G*T*C*C*mC*mA*mG*mG*mC (mG*mC*mG*mG*mU*dA*dT*dC*dC*dA*dT*dG*dT*dC*dC*mC*mA*mG*mG*mC; antisense) [C2-Mut1]", "values": [{"measurement": "IP-10 production driven by STING synthetic agonists (in words)", "setting": "STING", "value": "did not significantly affect IP-10 production"}, {"measurement": "cell viability", "setting": "THP-1 and HT-29 cells", "value": "did not significantly impact cell viability"}]}
